Target: T1, fibrinogen binding to platelets (glycoprotein IIb/IIIa) (Homo sapiens, UniProt P05106+P08514)
T1 construct: Washed human platelets were prepared from platelet-rich plasma by gel filtration; from tissue
Assay: Test 1: Fibrinogen Binding to Platelets (FITC-fibrinogen, flow cytometry)
Details: washed human platelets activated with 20 μM ADP, fixed; 10 μg/ml FITC-fibrinogen; 30 minutes at room temperature; read-out: IC50 (dose required to inhibit the binding by 50%)
Procedure: Test 1: Fibrinogen Binding to Platelets
Washed human platelets were prepared from platelet-rich plasma by gel filtration. The washed platelets were activated with 20 μM ADP for 10 minutes and then fixed for 30 minutes with 0.8% paraformaldehyde. The platelets were then washed by centrifugation and suspended in HEPES-Tyrodes buffer containing […].
350 μl of platelets were incubated at a final concentration of 2×10^8/ml with 10 μg/ml FITC-fibrinogen and test compound. The reaction was left for 30 minutes at room temperature. The FITC fluoresence of bound fibrinogen was measured by using a FACS can flow cytometer.
Specific binding was calculated by subtracting the binding in the presence of 50-fold excess unlabeled fibrinogen. Result was expressed at IC50 value, i.e. dose required to inhibit the binding by 50%.

T1 sequence (P08514 32-887 limits assumed): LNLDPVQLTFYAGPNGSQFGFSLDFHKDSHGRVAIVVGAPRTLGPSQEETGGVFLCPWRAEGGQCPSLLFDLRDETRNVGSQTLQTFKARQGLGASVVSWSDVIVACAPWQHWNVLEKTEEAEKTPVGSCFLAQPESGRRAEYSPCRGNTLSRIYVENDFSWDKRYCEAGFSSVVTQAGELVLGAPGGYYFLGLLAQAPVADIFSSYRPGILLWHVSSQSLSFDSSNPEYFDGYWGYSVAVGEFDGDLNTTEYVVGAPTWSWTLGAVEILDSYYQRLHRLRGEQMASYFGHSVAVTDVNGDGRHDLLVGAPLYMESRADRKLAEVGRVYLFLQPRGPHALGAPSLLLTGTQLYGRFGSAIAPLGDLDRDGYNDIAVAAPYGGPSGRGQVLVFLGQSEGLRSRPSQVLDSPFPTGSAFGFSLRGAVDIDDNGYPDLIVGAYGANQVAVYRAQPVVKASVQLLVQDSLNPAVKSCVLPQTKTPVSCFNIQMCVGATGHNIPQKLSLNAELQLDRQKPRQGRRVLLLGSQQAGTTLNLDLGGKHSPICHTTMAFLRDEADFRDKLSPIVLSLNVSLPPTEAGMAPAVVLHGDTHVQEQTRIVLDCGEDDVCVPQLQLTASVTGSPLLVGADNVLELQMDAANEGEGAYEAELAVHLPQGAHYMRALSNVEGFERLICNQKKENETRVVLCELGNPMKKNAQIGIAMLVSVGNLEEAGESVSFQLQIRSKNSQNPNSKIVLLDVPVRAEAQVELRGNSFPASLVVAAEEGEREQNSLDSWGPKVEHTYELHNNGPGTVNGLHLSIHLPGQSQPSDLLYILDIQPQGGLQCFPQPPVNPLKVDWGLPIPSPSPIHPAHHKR
T1 sequence (P08514 891-1039 limits assumed): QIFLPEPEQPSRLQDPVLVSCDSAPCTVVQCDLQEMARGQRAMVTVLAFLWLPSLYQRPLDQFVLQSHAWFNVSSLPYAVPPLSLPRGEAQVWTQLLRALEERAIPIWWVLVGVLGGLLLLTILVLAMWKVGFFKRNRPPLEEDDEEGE
T1 sequence (P05106 27-788): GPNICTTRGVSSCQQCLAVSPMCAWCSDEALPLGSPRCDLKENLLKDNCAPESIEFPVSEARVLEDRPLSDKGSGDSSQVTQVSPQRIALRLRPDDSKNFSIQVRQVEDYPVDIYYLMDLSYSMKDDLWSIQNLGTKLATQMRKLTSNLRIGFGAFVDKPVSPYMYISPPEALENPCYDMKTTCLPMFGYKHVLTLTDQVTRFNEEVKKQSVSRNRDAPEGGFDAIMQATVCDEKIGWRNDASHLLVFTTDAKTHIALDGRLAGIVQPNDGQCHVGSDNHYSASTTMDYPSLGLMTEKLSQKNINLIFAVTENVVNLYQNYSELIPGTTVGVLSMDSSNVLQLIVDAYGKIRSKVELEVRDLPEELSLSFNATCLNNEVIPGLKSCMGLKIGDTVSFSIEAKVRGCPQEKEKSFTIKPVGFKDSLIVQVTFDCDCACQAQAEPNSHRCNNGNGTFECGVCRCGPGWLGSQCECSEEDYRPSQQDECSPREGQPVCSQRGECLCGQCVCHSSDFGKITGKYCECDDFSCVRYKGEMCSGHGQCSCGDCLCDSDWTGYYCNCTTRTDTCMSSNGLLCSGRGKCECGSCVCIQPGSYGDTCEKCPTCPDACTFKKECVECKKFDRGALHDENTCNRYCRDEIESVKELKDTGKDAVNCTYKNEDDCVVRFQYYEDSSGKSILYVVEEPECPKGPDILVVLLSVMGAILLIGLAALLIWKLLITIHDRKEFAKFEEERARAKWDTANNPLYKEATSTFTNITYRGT

- IC50: 16 nM
SMILES: CC(=O)NC(CNC(=O)[C@@H]1CCCN(C(=O)CCC2CCNCC2)C1)C(=O)O (stereo partly shown) [Example 1]

— patent US20010016571A1, “N-[ (R) -1-{3- (4- piperidyl) propionyl } -3-piperidylcarbonyl] -2 (S) -acetylamino-beta -alanine as fibrinogen receptor antagonist” (FUJISAWA PHARMACEUTICAL CO., LTD., priority 1996, published 2001)
